The target in assay [1] is T1, Human immunodeficiency virus type 1 integrase (Human immunodeficiency virus 1, UniProt Q7ZJM1). The assay is described as follows: (§1) Inhibitory concentration against Recombinant HIV-1 integrase (Standard transfer reaction).
Assay [2] relates to MT4. The assay is described as follows: Antiviral potency was measured in HIV-1IIIb infected MT-4 human T-lymphoid cells. Format: functional, cell-based.
Assay [3] deals with T1, Human immunodeficiency virus type 1 integrase. The assay is described as follows: (§2) Inhibitory concentration against Recombinant HIV-1 integrase (3'processing).
Assay [4] shares this target. The assay is described as §2. The source holds these as a separate data set.
In assay [5] the test system is MT4. The assay is described as follows: Cytotoxic concentration was measured against MT-4 human T-lymphoid cells. Format: functional.
The target of assay [6] is T1, Human immunodeficiency virus type 1 integrase. Described as §1. This is another data set of the same source.

Twelve molecules from ChEMBL document CHEMBL1144971, “Azido-containing aryl beta-diketo acid HIV-1 integrase inhibitors” (Bioorg Med Chem Lett, 2003) can be followed below.

The structures appear in SMILES notation. Some results are limits rather than exact numbers.

T1 sequence (Q7ZJM1 whole entry): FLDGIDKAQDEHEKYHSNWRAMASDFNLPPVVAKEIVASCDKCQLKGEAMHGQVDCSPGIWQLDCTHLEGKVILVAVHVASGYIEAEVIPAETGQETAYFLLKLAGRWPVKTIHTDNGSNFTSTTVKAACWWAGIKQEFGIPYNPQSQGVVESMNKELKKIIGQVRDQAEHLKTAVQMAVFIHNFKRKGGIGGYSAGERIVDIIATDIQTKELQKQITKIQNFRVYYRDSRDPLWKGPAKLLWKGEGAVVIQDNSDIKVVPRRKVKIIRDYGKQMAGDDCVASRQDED

In the case of `O=C(O)C(=O)CC(=O)c1cccc(OCc2ccccc2)c1`, the concentration for half-maximal inhibition (IC50) stood at 0.35 µM in assay [1], 0.6 µM in the assay with MT4 [2], 85 µM in assay [3] and 100 µM in assay [4].
`O=C(O)C(=O)CC(=O)c1cc(OCc2ccccc2)cc(OCc2ccccc2)c1`: the IC50 in assay [1] was 0.48 µM; with MT4 [2], 1.9 µM; in assay [3], more than 100 µM. In the assay with MT4 [5], this molecule had a cytotoxic concentration (CC50) of more than 50 µM.
Regarding `N#CCCc1cccc(C(=O)CC(=O)C(=O)O)c1`, the IC50 in assay [1] is 1.8 µM; in the assay on MT4 [2], more than 25 µM; in assay [3] it was more than 100 µM; in assay [6], 1.5 µM.
The molecule `COc1ccc(CN=[N+]=[N-])cc1C(=O)CC(=O)C(=O)O` showed an IC50 in the assay with MT4 [2] of 13.5 µM.
`[N-]=[N+]=NCc1ccc(C(=O)CC(=O)C(=O)O)cc1CN=[N+]=[N-]`: the IC50 in assay [1] is 0.15 µM; in the assay with MT4 [2], 14.3 µM; in assay [3], more than 100 µM; in assay [6] it was 0.26 µM. Also, the CC50 in the assay on MT4 [5] is more than 50 µM.
Take `[N-]=[N+]=NCc1cccc(C(=O)CC(=O)C(=O)O)c1`: the values for the IC50 (in assay [1]; with MT4 [2]; in assay [3]) were 1.53 µM, 2.1 µM and more than 100 µM, respectively. In the assay on MT4 [5], this molecule registered a cytotoxic concentration (CC50) of more than 50 µM.
Take `[N-]=[N+]=NCc1ccc(C(=O)CC(=O)C(=O)O)cc1`: the IC50 in assay [1] is 7.1 µM; in the assay with MT4 [2] it was more than 25 µM; in assay [3], more than 100 µM; in assay [6] it was 6.1 µM.
On to `[N-]=[N+]=NC1CC(N=[N+]=[N-])c2cc(C(=O)CC(=O)C(=O)O)ccc21` (stereo not given), for which the IC50 in assay [1] is 0.36 µM; in the assay with MT4 [2], more than 25 µM; in assay [3], more than 100 µM.
With `[N-]=[N+]=NCc1cc(CN=[N+]=[N-])cc(C(=O)CC(=O)C(=O)O)c1`, the 50% inhibitory concentration (IC50) in assay [1] is 2 µM; with MT4 [2], 5 µM; in assay [3], more than 100 µM; in assay [6], 2.8 µM. Also, in the assay with MT4 [5], the CC50 was more than 50 µM.
As to `COc1ccc(C(=O)CC(=O)C(=O)O)cc1CN=[N+]=[N-]`, the concentration for half-maximal inhibition (IC50) was 9 µM in assay [1], more than 25 µM with MT4 [2], more than 100 µM in assay [3] and 8.5 µM in assay [6].
As for `CC(C)Oc1ccc(CN=[N+]=[N-])cc1C(=O)CC(=O)C(=O)O`, the IC50 in assay [1] was 23 µM; in the assay with MT4 [2] it was 5.9 µM; in assay [3], more than 100 µM; in assay [6], 25 µM.
With `[N-]=[N+]=NC1CCC(N=[N+]=[N-])c2cc(C(=O)CC(=O)C(=O)O)ccc21` (stereo not given), the IC50 in assay [1] turned out to be 0.32 µM; in the assay with MT4 [2], 15.6 µM; in assay [3] it was 70 µM.
